Article PMC11766267 (International Journal of Molecular Sciences, 2025)
Several values for one entry are separate records, joined by “and”; a condition that tells them apart may be missing. Equal values may be shown once. Read-outs that look alike come from different tables or passages of the source.

What was measured:
MCF-7 [1] = assay: In vitro anti-estrogenic activity assay, MCF-7
MCF-7 [2] = assay: MTT cytotoxicity assay, MCF-7; format: cell-based, human; conditions: Homo sapiens, MCF7, 24 h, 24 h treatment, mean ± SD of triplicate
Description: (§1) Subsequently, 100 µL of dimethyl sulfoxide was introduced to dissolve the insoluble formazan.

[3] = target: T1, aromatase (CYP19A, EC 1.14.14.14) (Homo sapiens, UniProt P11511); assay: biochemical; conditions: individual Data 1-3
T1 construct: Microsomal samples were isolated from tissue using the Microsome Isolation Kit; tissue BioVision K983-100; host or cells: microsomes from an unnamed tissue
T1 sequence (P11511 1-503): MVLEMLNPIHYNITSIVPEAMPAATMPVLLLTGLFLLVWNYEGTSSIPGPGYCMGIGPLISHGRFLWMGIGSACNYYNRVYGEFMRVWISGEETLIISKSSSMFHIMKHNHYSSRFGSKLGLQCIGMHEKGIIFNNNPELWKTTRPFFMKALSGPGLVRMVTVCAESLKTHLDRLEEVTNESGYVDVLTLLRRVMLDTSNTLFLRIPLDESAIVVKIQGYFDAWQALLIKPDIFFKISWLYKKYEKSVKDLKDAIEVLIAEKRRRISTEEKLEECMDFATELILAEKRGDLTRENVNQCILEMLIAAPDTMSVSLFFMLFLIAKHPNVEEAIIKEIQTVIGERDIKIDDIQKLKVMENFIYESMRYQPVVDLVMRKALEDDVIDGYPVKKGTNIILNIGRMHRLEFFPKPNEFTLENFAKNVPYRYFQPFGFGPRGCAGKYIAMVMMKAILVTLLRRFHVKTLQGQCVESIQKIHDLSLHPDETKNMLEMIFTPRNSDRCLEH
Description: In vitro aromatase assay was performed using the BioVision Aromatase Activity Assay Kit (Catalog # K983-100; BioVision, Milpitas, CA, USA). Microsomal samples were isolated from tissue using the Microsome Isolation Kit (Cat. #K249; BioVision, Milpitas, CA, USA). A standard curve was established by diluting the Fluorescence Standard provided in the kit to create a 0.5 pmole/µL solution, followed by setting up a series of standards in a white 96-well plate, adjusting the total volume to 100 µL with aromatase assay buffer. For each reaction well, a 2X concentrated mix was prepared by adding 2–48 µL of the microsomal sample and 2 µL of the NADPH generating system, bringing the final volume to 50 µL with aromatase assay buffer. Background controls (no enzyme) and positive controls (with recombinant aromatase) were included. […] After a 10 min incubation at 37 °C, 30 µL of the substrate/NADP+ mixture was added to each well, and fluorescence was measured immediately in kinetic mode for 60 min at 37 °C. Finally, the change in fluorescence was calculated to determine the specific activity of aromatase using the formula provided in the kit protocol.

[4] = MTT cytotoxicity assay, normal cell line WI-38; format: cell-based, human; conditions: human, WI-38 cells (normal human lung fibroblasts), normal (non-cancer) cell line, 24 h treatment
Description: as §1

HCT-116 = assay: MTT cytotoxicity assay, HCT-116; format: cell-based; conditions: Homo sapiens, 24 h treatment, mean ± SD of triplicate
Description: as §1

HER2 = HER2 (Homo sapiens, UniProt P04626); assay: In vitro protein kinase inhibition assay (ELISA kit), HER2
HER2, sequence (P04626 23-1255): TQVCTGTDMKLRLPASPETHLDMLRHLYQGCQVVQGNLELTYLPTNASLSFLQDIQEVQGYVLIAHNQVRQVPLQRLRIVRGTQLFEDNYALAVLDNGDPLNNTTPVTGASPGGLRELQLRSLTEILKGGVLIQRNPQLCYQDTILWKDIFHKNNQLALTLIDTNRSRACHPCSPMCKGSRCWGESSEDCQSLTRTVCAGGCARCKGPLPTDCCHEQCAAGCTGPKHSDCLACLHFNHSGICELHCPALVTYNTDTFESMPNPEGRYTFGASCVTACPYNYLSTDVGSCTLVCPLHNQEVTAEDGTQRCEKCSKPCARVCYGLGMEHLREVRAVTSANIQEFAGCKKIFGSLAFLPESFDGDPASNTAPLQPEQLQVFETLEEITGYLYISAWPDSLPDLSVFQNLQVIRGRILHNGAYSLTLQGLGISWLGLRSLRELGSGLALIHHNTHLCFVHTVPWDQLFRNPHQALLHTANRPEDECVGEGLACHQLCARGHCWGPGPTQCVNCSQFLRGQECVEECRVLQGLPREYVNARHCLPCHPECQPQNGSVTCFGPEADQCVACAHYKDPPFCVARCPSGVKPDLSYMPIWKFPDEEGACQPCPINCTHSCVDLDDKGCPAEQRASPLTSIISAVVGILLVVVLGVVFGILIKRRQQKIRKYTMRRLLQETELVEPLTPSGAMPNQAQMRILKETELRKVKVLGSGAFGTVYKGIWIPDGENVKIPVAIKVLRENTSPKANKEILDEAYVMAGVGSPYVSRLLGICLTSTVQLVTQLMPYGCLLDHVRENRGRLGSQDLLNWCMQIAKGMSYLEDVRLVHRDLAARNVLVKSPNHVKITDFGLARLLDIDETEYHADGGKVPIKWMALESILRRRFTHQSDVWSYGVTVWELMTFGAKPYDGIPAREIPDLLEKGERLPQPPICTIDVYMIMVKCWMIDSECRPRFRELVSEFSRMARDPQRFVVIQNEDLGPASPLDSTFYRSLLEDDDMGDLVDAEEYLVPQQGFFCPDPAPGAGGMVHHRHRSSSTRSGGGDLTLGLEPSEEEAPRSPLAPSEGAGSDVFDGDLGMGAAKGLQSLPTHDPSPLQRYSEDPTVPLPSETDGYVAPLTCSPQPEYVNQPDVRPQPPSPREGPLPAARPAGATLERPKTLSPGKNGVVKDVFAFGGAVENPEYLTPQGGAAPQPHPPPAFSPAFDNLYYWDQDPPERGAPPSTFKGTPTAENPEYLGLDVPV

CDK2 = CDK2 (Homo sapiens, UniProt P24941); assay: In vitro protein kinase inhibition assay (ELISA kit), CDK2
MCF-7a = assay: In vitro anti-estrogenic activity assay, MCF-7a
VEGFR-2 = VEGFR-2 (Homo sapiens, UniProt P35968); assay: In vitro protein kinase inhibition assay (ELISA kit), VEGFR-2; conditions: individual Data 1-3
VEGFR-2, sequence (P35968 20-1356): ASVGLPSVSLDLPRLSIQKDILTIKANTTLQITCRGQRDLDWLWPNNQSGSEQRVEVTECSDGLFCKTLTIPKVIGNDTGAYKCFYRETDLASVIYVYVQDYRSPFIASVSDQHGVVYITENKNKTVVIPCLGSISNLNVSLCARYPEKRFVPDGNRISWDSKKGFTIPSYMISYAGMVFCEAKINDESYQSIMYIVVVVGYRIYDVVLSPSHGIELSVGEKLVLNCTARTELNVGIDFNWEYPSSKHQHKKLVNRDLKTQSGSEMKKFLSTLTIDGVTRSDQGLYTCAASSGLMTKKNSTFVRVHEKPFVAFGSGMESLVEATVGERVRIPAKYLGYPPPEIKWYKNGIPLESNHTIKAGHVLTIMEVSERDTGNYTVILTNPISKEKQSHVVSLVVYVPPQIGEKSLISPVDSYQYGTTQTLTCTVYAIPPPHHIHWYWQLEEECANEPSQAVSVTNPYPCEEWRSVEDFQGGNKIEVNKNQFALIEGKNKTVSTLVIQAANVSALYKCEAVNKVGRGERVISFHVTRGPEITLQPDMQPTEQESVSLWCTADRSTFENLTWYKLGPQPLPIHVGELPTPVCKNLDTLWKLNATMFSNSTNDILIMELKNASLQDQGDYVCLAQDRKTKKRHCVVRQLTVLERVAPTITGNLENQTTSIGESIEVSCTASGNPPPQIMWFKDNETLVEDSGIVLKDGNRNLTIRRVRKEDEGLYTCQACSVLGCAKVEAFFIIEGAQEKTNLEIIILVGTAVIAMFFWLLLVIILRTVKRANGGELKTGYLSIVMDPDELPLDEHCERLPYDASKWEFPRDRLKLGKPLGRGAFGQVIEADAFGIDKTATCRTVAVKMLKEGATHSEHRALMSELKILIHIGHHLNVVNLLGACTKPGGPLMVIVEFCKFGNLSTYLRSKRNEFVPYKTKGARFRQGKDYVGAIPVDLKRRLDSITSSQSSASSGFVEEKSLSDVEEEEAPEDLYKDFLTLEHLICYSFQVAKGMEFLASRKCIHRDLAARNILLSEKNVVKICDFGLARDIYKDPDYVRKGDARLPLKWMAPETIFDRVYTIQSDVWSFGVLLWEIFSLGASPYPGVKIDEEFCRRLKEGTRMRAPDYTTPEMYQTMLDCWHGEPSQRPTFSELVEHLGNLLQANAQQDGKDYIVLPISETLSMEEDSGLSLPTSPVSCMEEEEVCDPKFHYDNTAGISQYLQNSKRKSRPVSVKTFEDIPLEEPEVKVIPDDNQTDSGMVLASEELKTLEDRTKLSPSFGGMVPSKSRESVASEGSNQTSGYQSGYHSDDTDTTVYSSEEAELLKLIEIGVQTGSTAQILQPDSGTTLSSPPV

HeLa = assay: MTT cytotoxicity assay, HeLa; format: cell-based; conditions: Homo sapiens, 24 h treatment, mean ± SD of triplicate
Description: as §1

MDA-MB-231 = assay: MTT cytotoxicity assay, MDA-MB-231; format: cell-based; conditions: Homo sapiens, 24 h treatment, mean ± SD of triplicate
Description: as §1

[5] = system: HCT-116, MDA-MB-231, HeLa, and MCF-7; assay: MTT cytotoxicity assay, ranges stated over several cell lines; format: cell-based; conditions: Homo sapiens
Description: as §1

[6] = cell count relative to the control (17β-E2)

O=C(/C=C/c1ccc(O)cc1)c1ccccc1 [Compound 4b, (E)-3-(4-Hydroxyphenyl)-1-phenylprop-2-en-1-one]
Cell Proliferation MCF-7 % (MCF-7 [1]; [6]): 34%
Cell Proliferation MCF-7 Cell Count (MCF-7 [1]; mean ± SD of triplicate): 6213 ± 221
Reduction of growth/cell count (inhibition) in MCF-7 (MCF-7 [1]; relative to control): 66%
IC50 (MCF-7 [2]): 2.08 ± 0.1 µM
Inhibition (%) Aromatase ([3]; 0.01 µM): 5.7% and 3.5% and 7.9%
Inhibition (%) Aromatase ([3]; 0.1 µM): 9.9% and 14.2%
Inhibition (%) Aromatase ([3]; 1 µM): 44% and 41.7%
Inhibition (%) Aromatase ([3]; 10 µM): 72.5% and 78.6%
Inhibition (%) Aromatase ([3]; 100 µM): 87% and 93.8%
inhibition at 0.1 µM ([3]; read-out: Inhibition (%) Aromatase, 0.1 µM): 11%
inhibition at 1 µM ([3]; read-out: Inhibition (%) Aromatase, 1 µM): 47.8%
inhibition at 10 µM ([3]; read-out: Inhibition (%) Aromatase, 10 µM): 75%
inhibition at 100 µM ([3]; read-out: Inhibition (%) Aromatase, 100 µM): 89%
IC50 at 24 h [4]: 54.6 ± 3.1 µM
IC50 (HCT-116): 6.59 ± 0.3 µM
IC50 (HER2): 0.387 ± 0.015 µM
Inhibition (%) Her2 (HER2; 0.01 µM, individual Data 1-3): 8.76% and 10.34%
Inhibition (%) Her2 (HER2; 0.1 µM, individual Data 1-3): 36.2% and 38.76%
Inhibition (%) Her2 (HER2; 1 µM, individual Data 1-3): 71.3% and 70.87%
Inhibition (%) Her2 (HER2; 10 µM, individual Data 1-3): 80.35% and 82.9%
Inhibition (%) Her2 (HER2; 100 µM, individual Data 1-3): 93% and 95.67%
inhibition at 0.01 µM (HER2; read-out: Inhibition (%) Her2, 0.01 µM, individual Data 1-3): 9.25%
inhibition at 0.1 µM (HER2; read-out: Inhibition (%) Her2, 0.1 µM, individual Data 1-3): 37.7%
inhibition at 1 µM (HER2; read-out: Inhibition (%) Her2, 1 µM, individual Data 1-3): 73%
inhibition at 10 µM (HER2; read-out: Inhibition (%) Her2, 10 µM, individual Data 1-3): 81.6%
inhibition at 100 µM (HER2; read-out: Inhibition (%) Her2, 100 µM, individual Data 1-3): 94.2%
IC50 (CDK2): 0.288 ± 0.009 µM
Inhibition (%) CDK2 (CDK2; 0.01 µM, individual Data 1-3): 18.7% and 19.5%
Inhibition (%) CDK2 (CDK2; 0.1 µM, individual Data 1-3): 38.2% and 39.3%
Inhibition (%) CDK2 (CDK2; 1 µM, individual Data 1-3): 66.1% and 65.3%
Inhibition (%) CDK2 (CDK2; 10 µM, individual Data 1-3): 84.9% and 86%
Inhibition (%) CDK2 (CDK2; 100 µM, individual Data 1-3): 94.8%
inhibition at 100 µM (CDK2; read-out: Inhibition (%) CDK2): 93.8%
inhibition at 0.01 µM (CDK2; read-out: Inhibition (%) CDK2, 0.01 µM, individual Data 1-3): 19.1%
inhibition at 0.1 µM (CDK2; read-out: Inhibition (%) CDK2, 0.1 µM, individual Data 1-3): 38.5%
inhibition at 1 µM (CDK2; read-out: Inhibition (%) CDK2, 1 µM, individual Data 1-3): 66.9%
inhibition at 10 µM (CDK2; read-out: Inhibition (%) CDK2, 10 µM, individual Data 1-3): 85.4%
inhibition at 100 µM (CDK2; read-out: Inhibition (%) CDK2, 100 µM, individual Data 1-3): 94.1%
Cell Proliferation MCF-7a % (MCF-7a; [6]): 99%
Cell Proliferation MCF-7a Cell Count (MCF-7a; mean ± SD of triplicate): 20,669 ± 597
Inhibition (%) VEGFR2 (VEGFR-2; 0.01 µM): 19.2% and 19.7%
Inhibition (%) VEGFR2 (VEGFR-2; 0.1 µM): 48.2% and 48.6%
Inhibition (%) VEGFR2 (VEGFR-2; 1 µM): 73.4%
Inhibition (%) VEGFR2 (VEGFR-2; 10 µM): 89% and 90%
Inhibition (%) VEGFR2 (VEGFR-2; 100 µM): 95.9%
inhibition at 0.01 µM (VEGFR-2; read-out: Inhibition (%) VEGFR2, 0.01 µM): 19.4%
inhibition at 0.1 µM (VEGFR-2; read-out: Inhibition (%) VEGFR2, 0.1 µM): 48.3%
inhibition at 1 µM (VEGFR-2; read-out: Inhibition (%) VEGFR2, 1 µM): 73.8%
inhibition at 10 µM (VEGFR-2; read-out: Inhibition (%) VEGFR2, 10 µM): 89.5%
inhibition at 100 µM (VEGFR-2; read-out: Inhibition (%) VEGFR2, 100 µM): 96.1%
IC50 (HeLa): 13.1 ± 1.1 µM
IC50 (MDA-MB-231): 4.93 ± 0.3 µM
IC50 ([5]; HCT-116, MDA-MB-231, HeLa, MCF-7, range, read-out: IC50 values, range over the cancer cell lines tested): 2.08 to 34.9 µM
IC50 ([5]; HCT-116 and HeLa, range over the compounds named, read-out: IC50 values, range against HCT-116 and HeLa): 6.59 to 22.6 µM
IC50 ([5]; MDA-MB-231 and MCF-7, range over the compounds named, read-out: IC50 values, range against MDA-MB-231 and MCF-7): 2.08 to 13.6 µM
